Earlier results in patent publication US20110196036A1, “USE OF BETAINE” (DANISCO A/S, priority 2008, published 2011).

Details: pure form; water and lower alcohols

Q: With `C[N+](C)(C)CC(=O)[O-]` [betaine, trimethylglycine] as the compound, how does the solubility read?
A: readily soluble in water and lower alcohols
